# Measurements reported in patent publication US9365548B2, “Benzoimidazol-2-yl pyrimidines and pyrazines as modulators of the histamine H4 receptor” (Janssen Pharmaceutica NV, priority 2006, dated 2016).
# Target: T1, Recombinant Human Histamine H4 Receptor (Homo sapiens, UniProt Q9H3N8)
# T1 construct: expressed in transfected cells; host or cells: SK-N-MC cells or COS7 cells, transiently transfected; cell membranes used
# Experiment: Binding Assay on Recombinant Human Histamine H4 Receptor
# Conditions: competition binding with 3H-histamine, membranes of SK-N-MC or COS7 cells expressing human histamine H4 receptor; Ki by Cheng-Prusoff (KD 5 nM, ligand 5 nM); average of results obtained
# Excerpt: Additional examples of embodiments of this invention are provided by hemitartrate salts of compounds of Formula (I) and by hydrates, such as monohydrates and dihydrates, of compounds of Formula (I). […]
# T1 sequence (Q9H3N8 whole entry): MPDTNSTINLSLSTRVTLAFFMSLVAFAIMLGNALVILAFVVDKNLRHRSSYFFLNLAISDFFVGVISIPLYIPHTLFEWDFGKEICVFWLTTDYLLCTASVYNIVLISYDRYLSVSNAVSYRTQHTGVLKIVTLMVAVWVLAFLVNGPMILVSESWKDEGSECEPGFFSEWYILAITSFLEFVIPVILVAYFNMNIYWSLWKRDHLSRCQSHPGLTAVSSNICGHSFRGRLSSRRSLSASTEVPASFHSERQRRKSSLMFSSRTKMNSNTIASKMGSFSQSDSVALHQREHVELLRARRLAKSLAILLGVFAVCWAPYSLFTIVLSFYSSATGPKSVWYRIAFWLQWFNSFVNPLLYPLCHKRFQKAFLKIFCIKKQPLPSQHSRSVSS
row,Structure (SMILES),Ki
1,"Cc1nc(NCCCC2CCN(C)CC2)ncc1-c1nc2c(C)c(Cl)ccc2[nH]1 [Example 26, [5-(5-Chloro-4-methyl-1H-benzoimidazol-2-yl)-4-methyl-pyrimidin-2-yl]-[3-(1-methyl-piperidin-4-yl)-propyl]-amine]",13 nM
2,"Cc1c(F)ccc2[nH]c(-c3cnc(NCCCC4CCN(C)CC4)cn3)nc12 [Example 33, [5-(5-Fluoro-4-methyl-1H-benzoimidazol-2-yl)-pyrazin-2-yl]-[3-(1-methyl-piperidin-4-yl)-propyl]-amine]",250 nM
3,"Cc1cc(C)c2nc(-c3cnc(NCCCC4CCN(C)CC4)nc3C)[nH]c2c1 [Example 2, [5-(4,6-Dimethyl-1H-benzoimidazol-2-yl)-4-methyl-pyrimidin-2-yl]-[3-(1-methyl-piperidin-4-yl)-propyl]-amine]",11 nM
4,"Cc1cc(C)c2nc(-c3cnc(NCCCC4CCN(C)CC4)nc3C3CCC3)[nH]c2c1 [Example 17, [4-Cyclobutyl-5-(4,6-dimethyl-1H-benzoimidazol-2-yl)-pyrimidin-2-yl]-[3-(1-methyl-piperidin-4-yl)-propyl]-amine]",1320 nM
5,"Cc1ccc2[nH]c(-c3cnc(NCCCC4CCN(C)CC4)nc3C)nc2c1C [Example 5, [5-(4,5-Dimethyl-1H-benzoimidazol-2-yl)-4-methyl-pyrimidin-2-yl]-[3-(1-methyl-piperidin-4-yl)-propyl]-amine]",4 nM
6,"Cc1c(F)ccc2[nH]c(-c3cnc(NCCCC4CCN(C)CC4)nc3C(F)(F)F)nc12 [Example 27, [5-(5-Fluoro-4-methyl-1H-benzoimidazol-2-yl)-4-trifluoromethyl-pyrimidin-2-yl]-[3-(1-methyl-piperidin-4-yl)-propyl]-amine]",92 nM
7,"Cc1ccc2[nH]c(-c3cnc(NCCCC4CCN(C)CC4)nc3C(F)(F)F)nc2c1C [Example 30, [5-(4,5-Dimethyl-1H-benzoimidazol-2-yl)-4-trifluoromethyl-pyrimidin-2-yl]-[3-(1-methyl-piperidin-4-yl)-propyl]-amine]",230 nM
8,"Cc1nc(NCCCC2CCN(C)CC2)ncc1-c1nc2c(C(F)(F)F)cc(C(F)(F)F)cc2[nH]1 [Example 35, [5-(4,6-Bis-trifluoromethyl-1H-benzoimidazol-2-yl)-4-methyl-pyrimidin-2-yl]-[3-(1-methyl-piperidin-4-yl)-propyl]-amine]",11 nM
9,"Cc1nc(NCCCC2CCN(C)CC2)ncc1-c1nc2c(F)c(F)ccc2[nH]1 [Example 4, [5-(4,5-Difluoro-1H-benzoimidazol-2-yl)-4-methyl-pyrimidin-2-yl]-[3-(1-methyl-piperidin-4-yl)-propyl]-amine]",11 nM
10,"CCc1nc(NCCCC2CCN(C)CC2)ncc1-c1nc2c(F)c(F)ccc2[nH]1 [Example 9, [5-(4,5-Difluoro-1H-benzoimidazol-2-yl)-4-ethyl-pyrimidin-2-yl]-[3-(1-methyl-piperidin-4-yl)-propyl]-amine]",210 nM
11,"CCc1nc(NCCCC2CCN(C)CC2)ncc1-c1nc2c(C)cccc2[nH]1 [Example 43, [4-Ethyl-5-(4-methyl-1H-benzoimidazol-2-yl)-pyrimidin-2-yl]-[3-(1-methyl-piperidin-4-yl)-propyl]-amine]",110 nM
12,"Cc1nc(NCCCC2CCN(C)CC2)ncc1-c1nc2c(C)cc(F)cc2[nH]1 [Example 3, [5-(6-Fluoro-4-methyl-1H-benzoimidazol-2-yl)-4-methyl-pyrimidin-2-yl]-[3-(1-methyl-piperidin-4-yl)-propyl]-amine]",4 nM
13,"Cc1nc(NCCCC2CCN(C)CC2)ncc1-c1nc2c(C)c(F)ccc2[nH]1 [Example 1, [5-(5-Fluoro-4-methyl-1H-benzoimidazol-2-yl)-4-methyl-pyrimidin-2-yl]-[3-(1-methyl-piperidin-4-yl)-propyl]-amine]",21 nM
